Patent publication US20040219508A1, “Screening, quantitation and identification of active ingredients in natural products” (Sloan-Kettering Institute for Cancer Research, priority 2002, published 2004)

Tests used:
[1] = system: MKN-74; test: MTT growth assay; assay type: cell-based, human; conditions: 10 μg/ml berberine
Description: The cells were treated on day 0 with huanglian and then cell viability in the continued presence or absence (control) of drug was determined for the subsequent 5 days (days 1 to 5) by the MTT (3-(4,5-dimethythiazol-2-yl)-2-5-diphenyltetratrazolium bromide) assay. In this colorometric assay the absorbance of converted dye is measured at a wavelength (OD) of 550 nm and the increased absorbance is directly proportional to cell viability.
Since berberine constitutes the major fraction of huanglian (25%), a 10 μg/ml solution of berberine was tested to determine the degree to which it inhibited proliferation of the MKN-74 cells.

[2] = cited from earlier work
[3] = human, in vivo
Description: Pharmacokinetic studies (PK). Bloods for pharmacokinetic studies (PK) will be performed on days 1, 2, 8, 15 and 29 of treatment. Repeated bloods for PK will be drawn on day #1 only, before the daily dose (time=0), 1 hour after, and 2,4, 6, 8 and 24 hours after the first dose of huanglian. On all other days, a single PK blood sample will be drawn, to measure steady state levels of the drug. For these studies 10 ml of heparinized blood (green stopper vacutainer tube) will be collected. Plasma samples (PK) will be sent for pharmacokinetic measurements of huanglian peaks.
Pharmacokinetic (PK) and surrogate marker studies: Since berberine represents approximately 50% of the herb, PK measurements were being conducted of berberine by HPLC. However, only very low levels of berberine (<50 ng/ml) have been detected in the plasma of any patient on the study. Also being tested is plasma collected from patients on day #15 of therapy to determine if the patient's own plasma will inhibit cancer cell growth of the gastric cancer cell line MKN-74 ex vivo, as determined by SRB assays. For these studies, the patient's plasma is concentrated and the MKN-74 cells are exposed to the patient's own plasma for either 2 (II) or 4 (IV) days before the tumor cells are assayed for growth inhibition. As shown for the patient treated in cohort 3 (see graph below), the patient's own pretreatment plasma (day 0) was capable of inhibiting MKN-74 cell growth, even though the patient had been off all chemotherapy for at least 4 weeks. Three separate samples were then drawn on day 15 of treatment at 8:30 AM, 9:30 AM, and 12:30 PM. […] The last lanes show the positive control of media “spiked” with huanglian (HL) at a concentration of 20 μg/ml and exposed to MKN-74 cells for both 2 and 4 days. This degree of growth suppression confirms the activity of the herb from the capsules.

[4] = dogs; cited from earlier work
[5] = Metabolism by human liver S9 microsomes, HPLC/UV; assay type: in vitro ADME; conditions: extract 3 μ/ml, S9 1 mg/ml with NADPH
Description: Since oral drugs are metabolised by a “first-pass” through the liver, we also elected to determine whether huanglian would be metabolised in vitro by human liver S9 microsomes (Gentest, MA). This assay creates metabolites of a drug that are equivalent to those formed on a “first-pass” through the liver. For these studies, the huanglian extract, at a final concentration of 3 μ/ml, was exposed to human liver S9 microsomes at 1 mg/ml with NADPH. The microsomal extracts obtained in this assay were then analyzed by HPLC and UV spectroscopy.

[6] = cited from earlier work; remark: listed apart in the source
[7] = system: HepG2 hepatoma cells; conditions: continuous exposure, 1 to 50 μM; cited from earlier work
[8] = system: MKN-74 cells; test: Flow cytometry with MPM-2 labeling after nocodazole synchronisation; assay type: cell-based, human
Description: Activation of cyclin B1 associated cdc2 kinase by mitotic inhibitors including paclitaxel induces an increased accumulation of cells into the M phase of the cell cycle (12). Thus, a decrease in cyclin B1 associated kinase activity should prevent cells from entering M and results in an accumulation of cells in G2. It should also force cells in M to exit M and continue to cell cycle. Experiments were designed to test this in the MKN-74 cells by flow cytometry and labeling of cells with the MPM-2 antibody which identifies cells in mitosis. This is difficult to assess in asynchronous cells. So as to better document accumulation of cell in G2, experiments were designed to first synchronise the cells with nocodazole in the M phase (e.g. mitotic block).

| SMILES | inhibition of cell proliferation [1] | clinical effect at higher plasma concentration ([2]; berberine plasma concentrations >0.11 mg/L) | side effects ([2]; by mouth, 1.2 gm/d for two weeks, 56 patients) | Plasma B [3] | berberine in plasma by HPLC [3] | berberine level in plasma [3] | cardiovascular effects [4] | change of HPLC peaks after liver microsome treatment [5] | facial flushing ([6]; 12 patients) | transient nausea ([6]; 12 patients) | QTc interval ([6]; after berberine, returned to baseline after 24 hours) | hemodynamic effects ([6]; i.v. 0.2 mg/kg/min over 30 minutes) | ventricular tachycardia with torsades de pointes morphology, patients ([6]; within 1-20 hours of the infusion) | tumor cell growth [7] | cells remaining in M ([8]; nocodazole for 12 hours (NOC12)) | cells remaining in M ([8]; nocodazole, then drug free medium 24 hours (NOC12→(−)24)) |
| --- | --- | --- | --- | --- | --- | --- | --- | --- | --- | --- | --- | --- | --- | --- | --- | --- |
| COc1ccc2cc3[n+](cc2c1OC)CCc1cc2c(cc1-3)OCO2 [berberine] | not able to inhibit cell proliferation to the same degree as either the huanglian or its metabolites | more significant increase in LVEF and decrease in the frequency and complexity of ventricular premature beats | no side effects or arrythmogenesis | 0 to 0.024 µg/mL | non-measurable by HPLC | < 50 ng/mL | positive inotropic effects and lower peripheral vascular resistance | decreased only slightly | 2 patients | 2 patients | consistently elevated in all 12 patients | decrease in pulmonary and systemic vascular resistance and an increase in cardiac index and ejection fraction | Four of 12 | inhibits tumor cell growth in a dose-dependent manner |  |  |
| COC(=O)Nc1nc2ccc(C(=O)c3cccs3)cc2[nH]1 [nocodazole] |  |  |  |  |  |  |  |  |  |  |  |  |  |  | 41% | 16% |
